System: pruritus and skin lesions associated with allergic dermatitis in dogs
Assay: Control of pruritus and skin lesions associated with allergic dermatitis in dogs (four-arm, blinded, randomized, placebo-controlled study)
Assay type: in vivo
Details: for Treatment success LSMean (response rate): oral tablets (Form II) once daily, success = 2 unit or more reduction from baseline on 10-unit owner-assessed pruritus VAS in at least 5 of first 7 treatment days, generalized linear mixed model
Procedure: Control of Pruritus and Skin Lesions Associated with Allergic Dermatitis in Dogs
This study evaluated 2-(3-(4-(7H-pyrrolo[2,3-d]pyrimidin-4-yl)-1H-pyrazol-1-yl)-1-(cyclopropylsulfonyl)azetidin-3-yl)acetonitrile for control of pruritus and skin lesions associated with allergic dermatitis in dogs.
Oral tablets were prepared containing Form II 2-(3-(4-(7H-pyrrolo[2,3-d]pyrimidin-4-yl)-1H-pyrazol-1-yl)-1-(cyclopropylsulfonyl)azetidin-3-yl)acetonitrile, as follows. Oral tablet blends were prepared containing crystal Form II 2-(3-(4-(7H-pyrrolo[2,3-d]pyrimidin-4-yl)-1H-pyrazol-1-yl)-1-(cyclopropylsulfonyl)azetidin-3-yl)acetonitrile, microcrystalline cellulose, pregelantinized starch, dicalcium phosphate dehydrate, oxide pigment, and magnesium stearate. The tablet blends were pressed giving tablet cores containing 2.4 mg, 3.6 mg, 5.4 mg, and 16 mg of crystal Form II 2-(3-(4-(7H-pyrrolo[2,3-d]pyrimidin-4-yl)-1H-pyrazol-1-yl)-1-(cyclopropylsulfonyl)azetidin-3-yl)acetonitrile, as well as a placebo core. The tablet cores were coated with a mixture containing water and Opadry 20A150011 Red, thereby giving the final oral tablets for the study.
A four-arm, blinded, randomized, placebo-controlled study was conducted to assess the efficacy of daily administration of 2-(3-(4-(7H-pyrrolo[2,3-d]pyrimidin-4-yl)-1H-pyrazol-1-yl)-1-(cyclopropylsulfonyl)azetidin-3-yl)acetonitrile for control of pruritus and skin lesions associated with allergic dermatitis in dogs. Subjects were randomized to one of the following treatment arms: API-containing Tablets, 0.25-0.40 mg/kg Body Weight; API-containing Tablets, 0.40-0.60 mg/kg Body Weight; API-containing Tablets, 0.60-0.80 mg/kg Body Weight; and Placebo Tablets, 0.0 mg/kg Body Weight.
Dogs enrolled in the study received once daily treatment for approximately 28 days. Baseline data (clinical history, concomitant therapies, body weight, physical examinations and assessments of pruritus and atopic dermatitis) were collected for each dog at enrollment (Day 0). Additional health assessments, physical examinations, body weight measurements, assessments of pruritus and atopic dermatitis, and collection of blood samples for hematology, serum chemistry and pharmacokinetic (PK) analysis occurred consistent with standard testing protocols.
The primary effectiveness variable was treatment success. A treatment success was defined as a 2 unit or more reduction from baseline on the 10-unit owner-assessed pruritus Visual-Analog Scale (VAS) in at least 70% of the first 7 treatment days (i.e., in at least 5 of the first 7 treatment days). Dogs withdrawn from the study within the first 7 days of treatment due to a perceived lack of effectiveness were considered treatment failures.
Random effects were fit for site and site treatment with a variance component covariance structure and a compound symmetry covariance structure was fit for individual dogs.

With `N#CCC1(n2cc(-c3ncnc4[nH]ccc34)cn2)CN(S(=O)(=O)C2CC2)C1` [2-(3-(4-(7H-pyrrolo[2,3-d]pyrimidin-4-yl)-1H-pyrazol-1-yl)-1-(cyclopropylsulfonyl)azetidin-3-yl)acetonitrile] the “Treatment success LSMean (response rate)” value (0.25-0.40 mg/kg) was 0.4640, the “Treatment success LSMean (response rate)” value (0.40-0.60 mg/kg) was 0.5590 and the “primary endpoint for treatment success” value (highest dose group 0.6-0.8 mg/kg once daily, minimum effective dose = success in at least 50% of the dogs) was “achieved the primary endpoint for treatment success”. For the same compound, the “estimated marginal mean response rate compared with placebo rate” value (low dose (0.24-0.4 mg/kg) once daily) was “higher than the placebo rate”, the “estimated marginal mean response rate compared with placebo rate” value (medium dose (0.4-0.6 mg/kg) once daily) was “higher than the placebo rate” and the “improvement in lesion scores” value (once daily 0.6-0.8 mg/kg, at day 28) was “significant improvement in lesion scores”. The improvements in pruritus (once daily dosing with 0.6-0.8 mg/kg, from first dose) was “significant improvements in pruritus from first dose”.
